# ChEMBL document CHEMBL1201862, “PubChem BioAssay data set” (2004)
#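 Tested at 5 concentrations; 48 h exposure; 96-well plates; endpoints linearly interpolated, else capped at highest concentration. GI50: concentration for 50% inhibition of growth.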 Active and inactive are the calls of the source. No stated cut-off is given here; in the data, active = GI50 up to about 1.1 µM and inactive = higher.
# Key:
# Test in all cases: inhibition of tumour cell growth, NCI panel, 48 h
# [1] = system: SK-MEL-2
# [2] = system: LXFL 529
# [3] = system: DMS-273
# [4] = system: DLD-1
# [5] = system: SK-MEL-28
# [6] = system: SK-OV-3
# [7] = system: COLO 205
# [8] = system: SF-539
# [9] = system: A498
# [10] = system: NCI-H226
# [11] = system: SNB-19
# [12] = system: OVCAR-5
# [13] = system: UACC-257
# [14] = system: HOP-62
# [15] = system: NCI-H460
# [16] = system: HCC 2998
# [17] = system: SF-295
# [18] = system: HL-60
# [19] = system: SW-620
# [20] = system: M19-MEL
# [21] = system: SNB-78
# [22] = system: UACC-62
# [23] = system: CCRF-CEM
# [24] = system: ACHN
# [25] = system: DMS-114
# [26] = system: OVCAR-3
# [27] = system: XF498
# [28] = system: RPMI-8226
# [29] = system: SK-MEL-5
# [30] = system: OVCAR-4
# [31] = system: SNB-75
# [32] = system: M14
# [33] = system: IGROV-1
# [34] = system: HOP-92
# [35] = system: KM-20L2
# [36] = system: OVCAR-8
# [37] = system: MOLT-4
# [38] = system: KM12
# [39] = system: EKVX
# [40] = system: SF-268
# [41] = system: NCI-H23
# [42] = system: A549
# [43] = system: Malme-3M
# [44] = system: LOX IMVI
# [45] = system: HCT-15
# [46] = system: HOP-18
# [47] = system: U-251
# [48] = system: K562
# [49] = system: CAKI-1
# [50] = system: 786-0
# [51] = system: TK-10
# [52] = system: HT-29
# [53] = system: UO-31
# [54] = system: SN12C
# [55] = system: NCI-H522
# [56] = system: HCT-116
# [57] = system: RXF 393
# [58] = system: SR
smiles,measurement,setting,value
O=C1NC(c2ccccc2)(c2ccccc2)C(=O)N1CCCCCCN1C(=O)NC(c2ccccc2)(c2ccccc2)C1=O,GI50,[1],15.7 µM (inactive)
same,GI50,[2],25.9 µM (inactive)
same,GI50,[3],46 µM (inactive)
same,GI50,[4],> 100 µM (inactive)
same,GI50,[5],11 µM (inactive)
same,GI50,[6],26.9 µM (inactive)
same,GI50,[7],> 100 µM (inactive)
same,GI50,[8],18.6 µM (inactive)
same,GI50,[9],25.5 µM (inactive)
same,GI50,[10],> 100 µM (inactive)
same,GI50,[11],12.2 µM (inactive)
same,GI50,[12],> 100 µM (inactive)
same,GI50,[13],26.2 µM (inactive)
same,GI50,[14],24.8 µM (inactive)
same,GI50,[15],> 100 µM (inactive)
same,GI50,[16],> 100 µM (inactive)
same,GI50,[17],13.2 µM (inactive)
same,GI50,[18],> 100 µM (inactive)
same,GI50,[19],69.3 µM (inactive)
same,GI50,[20],> 100 µM (inactive)
same,GI50,[21],33.3 µM (inactive)
same,GI50,[22],57.7 µM (inactive)
same,GI50,[23],> 100 µM (inactive)
same,GI50,[24],33.3 µM (inactive)
same,GI50,[25],34.2 µM (inactive)
same,GI50,[26],83.2 µM (inactive)
same,GI50,[27],10.3 µM (inactive)
same,GI50,[28],> 100 µM (inactive)
same,GI50,[29],19.9 µM (inactive)
same,GI50,[30],4.52 µM (inactive)
same,GI50,[31],4.79 µM (inactive)
same,GI50,[32],53.8 µM (inactive)
same,GI50,[33],74 µM (inactive)
same,GI50,[34],4.83 µM (inactive)
same,GI50,[35],> 100 µM (inactive)
same,GI50,[36],22.3 µM (inactive)
same,GI50,[37],> 100 µM (inactive)
same,GI50,[38],> 100 µM (inactive)
same,GI50,[39],39.4 µM (inactive)
same,GI50,[40],21.5 µM (inactive)
same,GI50,[41],18.2 µM (inactive)
same,GI50,[42],21.2 µM (inactive)
same,GI50,[43],22.5 µM (inactive)
same,GI50,[44],62.5 µM (inactive)
same,GI50,[45],> 100 µM
same,GI50,[46],26.2 µM (inactive)
same,GI50,[47],27.7 µM (inactive)
same,GI50,[48],52.8 µM (inactive)
same,GI50,[49],48.5 µM (inactive)
same,GI50,[50],12.6 µM (inactive)
same,GI50,[51],25 µM (inactive)
same,GI50,[52],45.8 µM (inactive)
same,GI50,[53],> 100 µM (inactive)
same,GI50,[54],58.1 µM (inactive)
same,GI50,[55],11.9 µM (inactive)
COc1ccc(-c2cc(=O)c3c(O)c(OC)c(O)c(OC)c3o2)cc1OC,GI50,[2],61.1 µM (inactive)
same,GI50,[3],54.1 µM (inactive)
same,GI50,[4],54.8 µM (inactive)
same,GI50,[5],> 100 µM (inactive)
same,GI50,[6],80 µM (inactive)
same,GI50,[56],57 µM (inactive)
same,GI50,[7],92.3 µM (inactive)
same,GI50,[8],46.2 µM (inactive)
same,GI50,[9],36.4 µM (inactive)
same,GI50,[10],22.2 µM (inactive)
same,GI50,[11],> 100 µM (inactive)
same,GI50,[13],> 100 µM (inactive)
same,GI50,[14],44.2 µM (inactive)
same,GI50,[16],> 100 µM (inactive)
same,GI50,[17],> 100 µM (inactive)
same,GI50,[18],41.3 µM (inactive)
same,GI50,[19],> 100 µM (inactive)
same,GI50,[20],> 100 µM (inactive)
same,GI50,[21],42 µM (inactive)
same,GI50,[22],47.4 µM (inactive)
same,GI50,[23],33.6 µM (inactive)
same,GI50,[24],33 µM (inactive)
same,GI50,[25],> 100 µM (inactive)
same,GI50,[27],78.3 µM (inactive)
same,GI50,[28],46 µM (inactive)
same,GI50,[29],> 100 µM (inactive)
same,GI50,[30],> 100 µM (inactive)
same,GI50,[31],21.8 µM (inactive)
same,GI50,[32],> 100 µM (inactive)
same,GI50,[33],84.3 µM (inactive)
same,GI50,[34],25.1 µM (inactive)
same,GI50,[35],> 100 µM (inactive)
same,GI50,[36],> 100 µM (inactive)
same,GI50,[57],14.1 µM (inactive)
same,GI50,[37],42.3 µM (inactive)
same,GI50,[39],> 100 µM (inactive)
same,GI50,[40],90.2 µM (inactive)
same,GI50,[41],> 100 µM (inactive)
same,GI50,[42],72.1 µM (inactive)
same,GI50,[43],> 100 µM (inactive)
same,GI50,[45],63.7 µM
same,GI50,[46],54.3 µM (inactive)
same,GI50,[58],31.2 µM (inactive)
same,GI50,[47],49.9 µM (inactive)
same,GI50,[48],45.9 µM (inactive)
same,GI50,[50],> 100 µM (inactive)
same,GI50,[52],> 100 µM (inactive)
same,GI50,[53],21.5 µM (inactive)
same,GI50,[54],43.4 µM (inactive)
same,GI50,[55],12 µM (inactive)
CCCN1C(=O)CNC(=O)c2[nH]cnc21,GI50,[1],> 100 µM (inactive)
same,GI50,[2],> 100 µM (inactive)
same,GI50,[4],> 100 µM (inactive)
same,GI50,[5],> 100 µM (inactive)
same,GI50,[6],> 100 µM (inactive)
same,GI50,[56],> 100 µM (inactive)
same,GI50,[7],> 100 µM (inactive)
same,GI50,[8],> 100 µM (inactive)
same,GI50,[9],> 100 µM (inactive)
same,GI50,[10],> 100 µM (inactive)
same,GI50,[11],> 100 µM (inactive)
same,GI50,[12],> 100 µM (inactive)
same,GI50,[13],> 100 µM (inactive)
same,GI50,[14],> 100 µM (inactive)
same,GI50,[15],> 100 µM (inactive)
same,GI50,[16],> 100 µM (inactive)
same,GI50,[17],> 100 µM (inactive)
same,GI50,[18],> 100 µM (inactive)
same,GI50,[19],> 100 µM (inactive)
same,GI50,[20],> 100 µM (inactive)
same,GI50,[21],> 100 µM (inactive)
same,GI50,[22],48.3 µM (inactive)
same,GI50,[23],> 100 µM (inactive)
same,GI50,[24],> 100 µM (inactive)
same,GI50,[25],> 100 µM (inactive)
same,GI50,[26],> 100 µM (inactive)
same,GI50,[27],> 100 µM (inactive)
same,GI50,[28],> 100 µM (inactive)
same,GI50,[29],> 100 µM (inactive)
same,GI50,[31],> 100 µM (inactive)
same,GI50,[32],> 100 µM (inactive)
same,GI50,[33],> 100 µM (inactive)
same,GI50,[34],> 100 µM (inactive)
same,GI50,[35],> 100 µM (inactive)
same,GI50,[36],> 100 µM (inactive)
same,GI50,[57],> 100 µM (inactive)
same,GI50,[37],> 100 µM (inactive)
same,GI50,[38],> 100 µM (inactive)
same,GI50,[39],> 100 µM (inactive)
same,GI50,[40],> 100 µM (inactive)
same,GI50,[41],> 100 µM (inactive)
same,GI50,[42],> 100 µM (inactive)
same,GI50,[43],> 100 µM (inactive)
same,GI50,[44],> 100 µM (inactive)
same,GI50,[45],> 100 µM
same,GI50,[46],> 100 µM (inactive)
same,GI50,[58],> 100 µM (inactive)
same,GI50,[47],> 100 µM (inactive)
same,GI50,[48],> 100 µM (inactive)
same,GI50,[49],> 100 µM (inactive)
same,GI50,[50],> 100 µM (inactive)
same,GI50,[51],> 100 µM (inactive)
same,GI50,[52],> 100 µM (inactive)
same,GI50,[53],> 100 µM (inactive)
same,GI50,[54],> 100 µM (inactive)
same,GI50,[55],> 100 µM (inactive)
